According to patent publication US20160000787A1, “INHIBITORS OF CDK8/19 FOR USE IN TREATING ESTROGEN RECEPTOR POSITIVE BREAST CANCER” (SENEX BIOTECHNOLOGY, INC., priority 2013, published 2016):

Assays:
Assay type in all cases: cell-based
MCF7-1pE cells [1] = assay: Growth inhibition, 6-day treatment, Coulter counter; details: 6 days
Source text: (§1) Both MCF7-1pE and MCF7-Veh are resistant to tamoxifen and MCF7-Veh is also resistant to fulvestrant.

MCF7-Veh cells [2] = assay: as above; details: 6 days
Source text: as §1

T47D cells [3] = assay: as above; details: 6 days
Source text: as §1

MCF7 cells [4] = assay: as above; details: 6 days
Source text: as §1

BT474 cells [5] = assay: as above; details: 6 days
Source text: as §1

[6] = system: estrogen-depleted MCF7 cells; assay: Estrogen (E2) mitogenic stimulation assay, flow cytometric cell counting; details: for decrease of cell number: 4 days after E2 addition, fulvestrant 1 nM and/or Senexin A 1 μM; for effect on E2-stimulated cell growth: 10 nM E2
Experimental: To test the effect of CDK8/19 inhibition on the mitogenic effect of estrogen in estrogen-responsive BrCa cells, MCF7 cells (ER+BrCa line) were placed into estrogen-depleted phenol red-free media with 10% charcoal-stripped serum. Under these conditions cells are largely but not completely estrogen-depleted (full depletion would require adapting the cells to low serum, since the cells can synthesize estrogen from serum components). Cells were then plated in the presence or absence of Senexin A (at 1 μM and 5 μM concentrations), and either 10 nM of the estrogen 17-β-estradiol (E2) or vehicle control were added on the following day. Cell growth was measured by flow cytometric counting of live (PI-negative) and dead (PI-positive) cells over 4 days.
The interaction between Senexin A and fulvestrant in MCF7 cells was investigated in the estrogen (E2) mitogenic stimulation assay, carried out as described in example 1, with the cell number measured by flow cytometry 4 days after E2 addition.

MCF7-Veh cells [7] = assay: Long-term (11-day) drug treatment, crystal violet staining
MCF7-1pE cells [8] = assay: as above
[9] = system: ER-dependent ERE-containing promoter in T47D-ER/Luc cells; assay: ER-dependent ERE promoter luciferase reporter assay; details: different concentrations; 10 nM E2 added 1 h later; read 18 hrs later
Experimental: To determine whether the effect of CDK8 on ER-inducible gene expression is mediated through inhibition of the transcriptional effect of ER, which is exerted through ER binding to the ERE promoter element, a T47D-based reporter cell line was used. The cell line T47D-ER/Luc (obtained from Signosis) expresses firefly luciferase from the ER-dependent ERE-containing promoter. The reporter cell line was estrogen-depleted, then Senexin A was added at different concentrations, and one hour later 10 nM E2 was added. 18 hrs later, cells were counted and luciferase activity was measured.

[10] = system: GREB1 expression in estrogen-depleted MCF7 cells; assay: QPCR analysis of estrogen-inducible gene expression; details: two concentrations of Senexin A, with or without E2
Source text: (§2) Rae et al., (2005) used microarray profiling to analyze the effects of E2 and ER antagonists on gene expression in three ER+BrCa cell lines, MCF7, T47D and BT-474. […] The cytokine CXCL12 was also shown to mediate the mitogenic effect of E2 (Sauve et al., 2009) and, together with its receptor CXCR4, to be a key determinant of metastasis in cancers of the breast and other organs (Muller et al., 2001; Rhodes et al., 2011). […] The effect of Senexin A on CXCL12, a known mediator of metastasis, is of particular interest as a possible cause of the association of CDK8 expression with shorter RFS.

[11] = system: TFF1 expression in estrogen-depleted MCF7 cells; assay: as above; details: two concentrations of Senexin A, with or without E2
Source text: as §2

[12] = system: CXCL12 expression in estrogen-depleted MCF7 cells; assay: as above; details: two concentrations of Senexin A, with or without E2
Source text: as §2

T47D cells [13] = assay: Time course of cell growth over 7 days, Coulter counter; details: different concentrations
Source text: (§3) Senexin A alone inhibited cell growth, with the strongest effects observed in the estrogen-dependent lines T47D and parental MCF7 and the weakest effects in cell lines that are fully or partially estrogen-independent (MCF7-Veh, MCF7-1p).

MCF7 cells [14] = assay: as above; details: different concentrations
Source text: as §3

BT474 cells [15] = assay: as above; details: different concentrations
Source text: as §3

[16] = 144 h, FUL 1 nM, alone or with SenA 5 μM, read-out: % growth inhibition relative to control
[17] = 144 h, FUL 10 nM, alone or with SenA 5 μM, read-out: % growth inhibition relative to control
[18] = Homo sapiens, 144 h, FUL 1 nM, alone or with SenA 5 μM, read-out: % growth inhibition relative to control
[19] = Homo sapiens, 144 h, FUL 10 nM, alone or with SenA 5 μM, read-out: % growth inhibition relative to control
[20] = 144 h, TAM 1 μM, alone or with SenA 5 μM, read-out: % growth inhibition relative to control
[21] = 144 h, TAM 5 μM, alone or with SenA 5 μM, read-out: % growth inhibition relative to control
[22] = Homo sapiens, 144 h, TAM 1 μM, alone or with SenA 5 μM, read-out: % growth inhibition relative to control
[23] = Homo sapiens, 144 h, TAM 5 μM, alone or with SenA 5 μM, read-out: % growth inhibition relative to control

**Q.** `C[C@]12CC[C@@H]3c4ccc(O)cc4C[C@@H](CCCCCCCCC[S+]([O-])CCCC(F)(F)C(F)(F)F)[C@H]3[C@@H]1CC[C@@H]2O` (stereo partly shown) [FUL, fulvestrant] was tested. Which inhibition at 0.001 µM (MCF7-1pE cells [1]; [16]) did it give?
**A.** 49.7%

**Q.** And the inhibition at 0.01 µM (MCF7-1pE cells [1]; [17])?
**A.** 57.2%

**Q.** What about the inhibition at 0.001 µM (MCF7-Veh cells [2]; [16]) of the same molecule?
**A.** 12.4%

**Q.** What about the inhibition at 0.01 µM (MCF7-Veh cells [2]; [17]) of the same molecule?
**A.** 28%

**Q.** What about the inhibition at 0.001 µM (T47D cells [3]; [18]) of the same molecule?
**A.** 56.5%

**Q.** What about the inhibition at 0.01 µM (T47D cells [3]; [19]) of the same molecule?
**A.** 58.2%

**Q.** What about the inhibition at 0.001 µM (MCF7 cells [4]; [18]) of the same molecule?
**A.** 62%

**Q.** What about the inhibition at 0.01 µM (MCF7 cells [4]; [19]) of the same molecule?
**A.** 63.6%

**Q.** What about the inhibition at 0.001 µM (BT474 cells [5]; Homo sapiens, BT-474, 144 h, FUL 1 nM, alone or with SenA 5 μM, read-out: % growth inhibition relative to control) of the same molecule?
**A.** 17.7%

**Q.** What about the inhibition at 0.01 µM (BT474 cells [5]; Homo sapiens, BT-474, 144 h, FUL 10 nM, alone or with SenA 5 μM, read-out: % growth inhibition relative to control) of the same molecule?
**A.** 22.6%

**Q.** And the “decrease of cell number” value [6]?
**A.** 27%

**Q.** `N#Cc1ccc2ncnc(NCCc3ccccc3)c2c1` [Senexin A] was tested. Which “potentiation of fulvestrant effects” value (MCF7-Veh cells [7]) did it give?
**A.** especially apparent

**Q.** And the “% growth inhibition relative to control” value (MCF7-1pE cells [1]; SenA 5 μM)?
**A.** 19.1%

**Q.** And the “% growth inhibition relative to control” value (MCF7-Veh cells [2]; SenA 5 μM)?
**A.** 15.5%

**Q.** What about the “% growth inhibition relative to control” value (T47D cells [3]; SenA 5 μM) of the same molecule?
**A.** 48%

**Q.** And the “% growth inhibition relative to control” value (MCF7 cells [4]; SenA 5 μM)?
**A.** 37%

**Q.** What about the “% growth inhibition relative to control” value (BT474 cells [5]; SenA 5 μM) of the same molecule?
**A.** 23.9%

**Q.** What about the “potentiation of fulvestrant effects” value (MCF7-1pE cells [8]) of the same molecule?
**A.** especially apparent

**Q.** What about the “transcription from ER-dependent promoter (luciferase activity)” value [9] of the same molecule?
**A.** strongly inhibited

**Q.** And the “GREB1 expression (QPCR)” value [10]?
**A.** inhibited

**Q.** And the “TFF1 expression (QPCR)” value [11]?
**A.** inhibited

**Q.** What about the “CXCL12 expression (QPCR)” value [12] of the same molecule?
**A.** inhibited

**Q.** What about the “effect on E2-stimulated cell growth” value ([6]; 1 μM Senexin A, over 4 days) of the same molecule?
**A.** partial effect

**Q.** And the “effect on E2-stimulated cell growth” value ([6]; 5 μM Senexin A, over 4 days)?
**A.** abolished

**Q.** And the “effect on cell growth without E2 addition” value ([6]; 5 μM Senexin A, no E2, over 4 days)?
**A.** inhibited cell growth without E2 addition but to a lesser extent

**Q.** And the “decrease of cell number” value [6]?
**A.** 5%

**Q.** What about the “nature of effect / induction of cell death (PI-positive cells)” value ([6]; Senexin A 1 μM and 5 μM, over 4 days) of the same molecule?
**A.** cytostatic and were not associated with any significant induction of cell death

**Q.** And the “growth inhibition, time course” value (T47D cells [13])?
**A.** concentration-dependent growth inhibition

**Q.** And the “growth inhibition, time course” value (MCF7 cells [14])?
**A.** concentration-dependent growth inhibition

**Q.** What about the “growth inhibition, time course” value (BT474 cells [15]) of the same molecule?
**A.** concentration-dependent growth inhibition

**Q.** How did the “growth inhibition, time course” value (T47D cells [13]) turn out when `CN1CCN(C(=O)c2ccc3cc(CCNc4ncnc5ccc(C#N)cc45)ccc3c2)CC1` [Senexin B] was run?
**A.** concentration-dependent growth inhibition

**Q.** And the “growth inhibition, time course” value (MCF7 cells [14])?
**A.** concentration-dependent growth inhibition

**Q.** What about the “growth inhibition, time course” value (BT474 cells [15]) of the same molecule?
**A.** concentration-dependent growth inhibition

**Q.** Which inhibition at 1 µM (MCF7-1pE cells [1]; [20]) does the source give for `CC/C(=C(\c1ccc(O)cc1)c1ccc(OCCN(C)C)cc1)c1ccccc1` [TAM, 4-OH tamoxifen] here?
**A.** -1.3%

**Q.** What about the inhibition at 5 µM (MCF7-1pE cells [1]; [21]) of the same molecule?
**A.** 1.5%

**Q.** And the inhibition at 1 µM (MCF7-Veh cells [2]; [20])?
**A.** 2.6%

**Q.** And the inhibition at 5 µM (MCF7-Veh cells [2]; [21])?
**A.** 1%

**Q.** What about the inhibition at 1 µM (T47D cells [3]; [22]) of the same molecule?
**A.** 54.6%

**Q.** And the inhibition at 5 µM (T47D cells [3]; [23])?
**A.** 62.3%

**Q.** And the inhibition at 1 µM (MCF7 cells [4]; [22])?
**A.** 34.8%

**Q.** And the inhibition at 5 µM (MCF7 cells [4]; [23])?
**A.** 50.7%

**Q.** And the inhibition at 1 µM (BT474 cells [5]; Homo sapiens, BT-474, 144 h, TAM 1 μM, alone or with SenA 5 μM, read-out: % growth inhibition relative to control)?
**A.** 28.8%

**Q.** And the inhibition at 5 µM (BT474 cells [5]; Homo sapiens, BT-474, 144 h, TAM 5 μM, alone or with SenA 5 μM, read-out: % growth inhibition relative to control)?
**A.** 42.3%
